A word on the pIC50: it is −log10 of the IC50, conventionally taken in molar units.

For 49 compounds, IC50 results are on record in ChEMBL document CHEMBL1148225, “Discovery and SAR of trisubstituted thiazolidinones as CCR4 antagonists” (Bioorg Med Chem Lett, 2004).

pIC50: −log10 of the molar value.

This experiment deals with T1, C-C chemokine receptor type 4 (Homo sapiens, UniProt P51679).
T1 sequence (P51679 whole entry): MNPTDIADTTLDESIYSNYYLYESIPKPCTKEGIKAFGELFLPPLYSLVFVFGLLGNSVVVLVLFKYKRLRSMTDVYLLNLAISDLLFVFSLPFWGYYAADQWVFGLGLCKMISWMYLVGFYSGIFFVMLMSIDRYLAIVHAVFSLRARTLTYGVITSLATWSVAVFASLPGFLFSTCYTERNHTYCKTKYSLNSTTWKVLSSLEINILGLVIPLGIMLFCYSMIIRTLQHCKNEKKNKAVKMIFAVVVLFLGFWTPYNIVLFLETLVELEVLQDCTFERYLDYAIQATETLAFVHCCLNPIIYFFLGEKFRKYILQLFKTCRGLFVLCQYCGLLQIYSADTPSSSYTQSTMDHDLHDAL
In words: Inhibition of [125I]MDC binding to recombinant human C-C chemokine receptor type 4 (CCR4) expressed in murine pre-B cells. It is filed as cell-based.
Turning to `C[C@H](NC(=O)C[C@H]1S[C@H](c2ccc(Cl)cc2Cl)N(CC(=O)NCCCN2CCOCC2)C1=O)c1ccccc1`, the negative logarithm of the IC50 (pIC50) is 4.92.

Turning to `O=C(CN1C(=O)[C@@H](CC(=O)Nc2nccs2)S[C@@H]1c1ccc(Cl)cc1Cl)NCCCN1CCOCC1`, the pIC50 was 4.96.

Regarding `CN(C)CCN1C(=O)[C@@H](CC(=O)NCc2cccc3ccccc23)S[C@@H]1c1ccc(Cl)cc1Cl`, the pIC50 was 4.44.

In the case of `Cc1c(Cl)cccc1CNC(=O)C[C@H]1S[C@H](c2ccc(Cl)cc2Cl)N(CC(=O)NCCCN2CCCCC2)C1=O`, the pIC50 is 6.85.

As to `O=C(C[C@H]1S[C@H](c2cccc(Cl)c2)N(CC(=O)NCCCN2CCOCC2)C1=O)NCc1cccc2ccccc12`, the negative logarithm of the IC50 (pIC50) was 5.15.

As for `O=C(CN1C(=O)[C@@H](CC(=O)NC(c2ccccc2)c2ccccc2)S[C@@H]1c1ccc(Cl)cc1Cl)NCCCN1CCOCC1`, the pIC50 is 5.22.

Take `O=C(C[C@H]1S[C@H](c2ccc(Cl)c(Cl)c2)N(CC(=O)NCCCN2CCOCC2)C1=O)NCc1cccc2ccccc12`: the pIC50 was below 4.60.

In the case of `O=C(C[C@H]1S[C@H](c2ccc(Cl)cc2Cl)N(CC(=O)NCCCN2CCOCC2)C1=O)NCc1ccccc1-c1ccccc1`, the negative-log IC50 (pIC50) was 5.22.

On to `CN(C)CCCN(C)C(=O)CN1C(=O)[C@@H](CC(=O)NCc2cccc3ccccc23)S[C@@H]1c1ccc(Cl)cc1Cl`, for which the pIC50 is 6.44.

`O=C(C[C@H]1S[C@H](c2ccc(Cl)cc2Cl)N(CC(=O)NCCCN2CCCCC2)C1=O)NCc1cccc2ccccc12`: the pIC50 is 6.70.

Consider `O=C(C[C@H]1S[C@H](c2ccc(Cl)cc2Cl)N(CCN2CCOCC2)C1=O)NCc1cccc2ccccc12`, for which the negative logarithm of the IC50 (pIC50) is 5.05.

`O=C(C[C@H]1S[C@H](c2cc(Cl)ccc2Cl)N(CC(=O)NCCCN2CCOCC2)C1=O)NCc1cccc2ccccc12`: the pIC50 is 4.92.

With `O=C(C[C@H]1S[C@H](c2ccc(Cl)cc2Cl)N(CC(=O)NCCCN2CCOCC2)C1=O)NCc1ccc2[nH]ccc2c1`, the negative logarithm of the IC50 (pIC50) was 6.00.

For `O=C(C[C@H]1S[C@H](c2ccc(Cl)cc2Cl)N(CC(=O)NCCCN2CCOCC2)C1=O)NCc1ccc(-c2ccccc2)cc1`, the pIC50 is 5.60.

In the case of `O=C(C[C@H]1S[C@H](c2ccc(Cl)cc2Cl)N(CC(=O)NCCCN2CCOCC2)C1=O)NCc1ccccc1Cl`, the pIC50 is 5.00.

`O=C(C[C@H]1S[C@H](c2ccco2)N(CC(=O)NCCCN2CCOCC2)C1=O)NCc1cccc2ccccc12`: the pIC50 is 4.54.

For the compound `O=C(C[C@H]1S[C@H](c2ccoc2)N(CC(=O)NCCCN2CCOCC2)C1=O)NCc1cccc2ccccc12`, the negative-log IC50 (pIC50) was 4.00.

For the compound `O=C(C[C@H]1S[C@H](Cc2ccccc2)N(CC(=O)NCCCN2CCOCC2)C1=O)NCc1cccc2ccccc12`, the pIC50 was below 4.00.

In the case of `O=C(C[C@H]1S[C@H](c2ccsc2)N(CC(=O)NCCCN2CCOCC2)C1=O)NCc1cccc2ccccc12`, the negative logarithm of the IC50 (pIC50) is 4.18.

For `Cc1ccccc1CNC(=O)C[C@H]1S[C@H](c2ccc(Cl)cc2Cl)N(CC(=O)NCCCN2CCOCC2)C1=O`, the pIC50 is 4.96.

In the case of `O=C(C[C@H]1S[C@H](c2ccc(Cl)cc2Cl)N(CC(=O)NCCCN2CCOCC2)C1=O)NCc1ccco1`, the negative logarithm of the IC50 (pIC50) was 5.15.

For the compound `O=C(C[C@H]1S[C@H](c2ccc(Cl)cc2Cl)N(CC(=O)N2CCNCC2)C1=O)NCc1cccc2ccccc12`, the negative-log IC50 (pIC50) was 5.85.

On to `O=C(C[C@H]1S[C@H](c2ccc(Cl)cc2Cl)N(CCC(=O)N2CCNCC2)C1=O)NCc1cccc2ccccc12`, for which the pIC50 is 5.46.

For the compound `O=C(C[C@H]1S[C@H](c2ccc(Cl)cc2Cl)N(CC(=O)NCCCN2CCOCC2)C1=O)NCc1ccc(Cl)c(C(F)(F)F)c1`, the pIC50 is 5.22.

Take `CN(C)CCCN1C(=O)[C@@H](CC(=O)NCc2cccc3ccccc23)S[C@@H]1c1ccc(Cl)cc1Cl`: the pIC50 is 5.25.

In the case of `O=C(C[C@H]1S[C@H](c2cc(Cl)cc(Cl)c2)N(CC(=O)NCCCN2CCOCC2)C1=O)NCc1cccc2ccccc12`, the pIC50 is 5.05.

Regarding `O=C(C[C@H]1S[C@H](c2ccc(Cl)cc2Cl)N(CCCN2CCOCC2)C1=O)NCc1cccc2ccccc12`, the negative logarithm of the IC50 (pIC50) is 4.48.

Consider `C[C@@H](NC(=O)C[C@H]1S[C@H](c2ccc(Cl)cc2Cl)N(CC(=O)NCCCN2CCOCC2)C1=O)c1cccc2ccccc12`, for which the pIC50 was 6.60.

In the case of `O=C(C[C@H]1S[C@H](c2ccc(Cl)cc2Cl)N(Cc2cccc(CN3CCOCC3)c2)C1=O)NCc1cccc2ccccc12`, the negative-log IC50 (pIC50) is 4.00.

In the case of `O=C(C[C@H]1S[C@H](c2ccc(Cl)cc2Cl)N(CCNS(=O)(=O)CCCN2CCOCC2)C1=O)NCc1cccc2ccccc12`, the pIC50 was 4.62.

In the case of `O=C(C[C@H]1S[C@H](c2cccs2)N(CC(=O)NCCCN2CCOCC2)C1=O)NCc1cccc2ccccc12`, the pIC50 was 4.48.

As for `O=C(CN1C(=O)[C@@H](CC(=O)NC2CCCCC2)S[C@@H]1c1ccc(Cl)cc1Cl)NCCCN1CCOCC1`, the pIC50 is 5.15.

Turning to `O=C(C[C@H]1S[C@H](c2ccc(Cl)cc2Cl)N(CC(=O)NCCCN2CCOCC2)C1=O)NCc1cccc(-c2ccccc2)c1`, the negative logarithm of the IC50 (pIC50) is 5.89.

For `O=C(C[C@H]1S[C@H](c2ccc(Cl)cc2Cl)N(CC(=O)NCCCN2CCOCC2)C1=O)NCc1cccc(Cl)c1Cl`, the negative-log IC50 (pIC50) was 6.10.

Take `O=C(C[C@H]1S[C@H](c2ccc(Cl)cc2Cl)N(CC(=O)NCCCN2CCOCC2)C1=O)NCc1ccc(Cl)cc1Cl` (stereo in doubt; 66): the negative logarithm of the IC50 (pIC50) is 5.70.

Take `CN(C)CC(=O)NCCN1C(=O)[C@@H](CC(=O)NCc2cccc3ccccc23)S[C@@H]1c1ccc(Cl)cc1Cl`: the pIC50 was 4.96.

For the compound `Cc1c(Cl)cccc1CNC(=O)C[C@H]1S[C@H](c2ccc(Cl)cc2Cl)N(CC(=O)NCCCN2CCOCC2)C1=O`, the pIC50 is 6.40.

In the case of `O=C(C[C@H]1S[C@H](c2ccc(Cl)cc2Cl)N(CC(=O)NCCCN2CCOCC2)C1=O)NCc1cccc(Cl)c1`, the pIC50 was 6.03.

In the case of `O=C(C[C@H]1S[C@H](c2ccc(Cl)cc2Cl)N(CC(=O)N2CCC(N3CCCC3)CC2)C1=O)NCc1cccc2ccccc12`, the pIC50 is 6.22.

`Cc1cccc(CNC(=O)C[C@H]2S[C@H](c3ccc(Cl)cc3Cl)N(CC(=O)NCCCN3CCOCC3)C2=O)c1`: the negative-log IC50 (pIC50) was 5.64.

Regarding `O=C(C[C@H]1S[C@H](C2CCCCC2)N(CC(=O)NCCCN2CCOCC2)C1=O)NCc1cccc2ccccc12`, the pIC50 was 4.00.

Turning to `O=C(C[C@H]1S[C@H](c2ccc(Cl)cc2Cl)N(CC(=O)NCCCN2CCOCC2)C1=O)NCc1cccc(F)c1`, the pIC50 was 5.82.

As to `O=C(CN1C(=O)[C@@H](CC(=O)NC2CCCc3ccccc32)S[C@@H]1c1ccc(Cl)cc1Cl)NCCCN1CCOCC1` (some centres undefined), the pIC50 is 5.17.

With `CN1CCC(NC(=O)CN2C(=O)[C@@H](CC(=O)NCc3cccc4ccccc34)S[C@@H]2c2ccc(Cl)cc2Cl)CC1`, the negative-log IC50 (pIC50) was 5.10.

Take `O=C(C[C@H]1S[C@H](c2ccc(F)cc2Cl)N(CC(=O)NCCCN2CCOCC2)C1=O)NCc1cccc2ccccc12`: the pIC50 was 6.00.

For the compound `O=C(C[C@H]1S[C@H](c2ccc(Cl)cc2Cl)N(CC(=O)NCCCN2CCCC2)C1=O)NCc1cccc2ccccc12`, the pIC50 is 6.51.

In the case of `O=C(C[C@H]1S[C@H](c2ccc(Cl)cc2)N(CC(=O)NCCCN2CCOCC2)C1=O)NCc1cccc2ccccc12`, the pIC50 was 6.08.

For the compound `O=C(C[C@H]1S[C@H](c2ccc(Cl)cc2Cl)N(CC(=O)NCCCCCN2CCOCC2)C1=O)NCc1cccc2ccccc12`, the pIC50 is 5.62.

`C[C@@H](NC(=O)C[C@H]1S[C@H](c2ccc(Cl)cc2Cl)N(CC(=O)NCCCN2CCOCC2)C1=O)c1ccccc1` (stereo in doubt): the pIC50 was 5.10.
